Assay results taken from US12338256B2, “Aza-tetracyclic oxazepine compounds and uses thereof” (Genentech, Inc., priority 2022, dated 2025).

How the values were obtained:
Format in all cases: cell-based
[1] = system: AsPC-1 (homozygous mutant KRAS G12D human pancreatic cell line); experiment: KRAS 3D-Cell Proliferation Assay, AsPC-1 (Example 503); details: Homo sapiens, ASPC1, 168 h, AsPC-1 3D culture, 7 days, CellTiter-Glo 3D; read-out: Prolif AsPC-1 3D ATP IC50
Procedure: Example 503: KRAS 3D-Cell Proliferation Assays. Cellular potencies of compounds are assessed by evaluating inhibition of proliferation in 3D cultures of homozygous mutant KRAS G12D human pancreatic cell lines (AsPC-1 and HPAC) as compared to a KRAS wild type human lung adenocarcinoma cell line (PC-9 and/or H1975). Cells are seeded into 384-well black round-bottom, ultra-low attachment assay plates in 50 uL cell growth medium (RPMI-1640 with 10% fetal bovine serum and 2 mM L-glutamine). After overnight incubation at 37° C. and 5% CO2, compounds solubilized in DMSO are added as dilution series to the wells in a total volume of 150 nL (0.3% DMSO final). The cells are incubated for 7 days at 37° C. and 5% CO2. Cell proliferation is quantitated by addition of 40 uL/well of CellTiter-GloÒ 3D (Promega), and the well contents are mixed 20× at high speed using liquid handling automation workstation (Bravo with 384-well head) and centrifuged at 1500 rpm for 2 minutes to eliminate bubbles. This reagent in combination with mechanical disruption releases the cellular ATP to promote activity in a luciferase-based enzyme/substrate chemiluminescent detection system. After a 30-minute incubation under ambient conditions with shaking and an additional 10 minutes without shaking, the luminescence is read on a plate reader (e.g., EnVision [PerkinElmer]). The results are normalized to percent inhibition based on the following control samples: DMSO (0% inhibition) and 1 μM staurosporine (100% inhibition). The normalized luminescence results are plotted against compound concentration, and the data are fit to a 4-parameter Hill equation to determine the IC50 values.

[2] = system: HPAC (homozygous mutant KRAS G12D human pancreatic cell line); experiment: KRAS 3D-Cell Proliferation Assay, HPAC (Example 503); details: Homo sapiens, HPAC, 168 h, HPAC 3D culture, 7 days, CellTiter-Glo 3D; read-out: Prolif HPAC 3D ATP IC50
Procedure, shortened: (§1)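 KRAS G12D homozygous pancreatic lines and KRAS wild-type lung lines grown as 3D cultures in ultra-low-attachment wells in RPMI-1640/10% FBS, dosed after overnight with compound dilution series (0.3% DMSO final) for 7 days at 37 °C. ATP read by CellTiter-Glo 3D luminescence; IC50 from 4-parameter Hill fit, normalized to DMSO and 1 μM staurosporine.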

[3] = system: H1975 (KRAS wild type human lung adenocarcinoma cell line); experiment: KRAS 3D-Cell Proliferation Assay, H1975 (Example 503); details: Homo sapiens, NCI-H1975, 168 h, H1975 3D culture, 7 days, CellTiter-Glo 3D; read-out: Prolif H1975 3D ATP IC50
Procedure, shortened: as §1

| Compound | IC50 [1] [nM] | IC50 [2] [nM] | IC50 [3] [nM] |
| --- | --- | --- | --- |
| Cc1c(F)c(N)cc(-c2nc3c4c(nc(OCC5(CN6CCOC[C@H]6C)CC5)nc4c2F)N2C[C@H]4CC[C@H](N4)[C@H]2[C@H](C)O3)c1C(F)(F)F [Compound 129, 2-Fluoro-5-((5S,5aS,6S,9R)-1-fluoro-5-methyl-12-((1-(((R)-3-methylmorpholino)methyl)cyclopropyl)methoxy)-5a,6,7,8,9,10-hexahydro-5H-4-oxa-3,10a,11,13,14-pentaaza-6,9-methanonaphtho[1,8-ab]heptalen-2-yl)-3-methyl-4-(trifluoromethyl)aniline] | 1 | 1.1 | 1150 |
| Cc1c(F)c(N)cc(-c2nc3c4c(nc(OC[C@@H]5[C@@H]6CCN5CCO6)nc4c2F)N2C[C@H]4CC[C@H](N4)[C@H]2[C@H](C)O3)c1C(F)(F)F [Compound 136, 5-((5S,5aS,6S,9R)-12-(((5S,8R)-4-Oxa-1-azabicyclo[3.2.1]octan-8-yl)methoxy)-1-fluoro-5-methyl-5a,6,7,8,9,10-hexahydro-5H-4-oxa-3,10a,11,13,14-pentaaza-6,9-methanonaphtho[1,8-ab]heptalen-2-yl)-2-fluoro-3-methyl-4-(trifluoromethyl)aniline] | 200 | 67.5 | 12300 |
| Cc1c(F)c(N)cc(-c2nc3c4c(nc(OCC56C[C@@H](F)CN5C[C@H](F)C6)nc4c2F)N2C[C@H]4CC[C@H](N4)[C@H]2[C@H](C)O3)c1C(F)(F)F [Compound 140, 5-((5S,5aS,6S,9R)-12-(((2R,6R)-2,6-Difluorotetrahydro-1H-pyrrolizin-7a(5H)-yl)methoxy)-1-fluoro-5-methyl-5a,6,7,8,9,10-hexahydro-5H-4-oxa-3,10a,11,13,14-pentaaza-6,9-methanonaphtho[1,8-ab]heptalen-2-yl)-2-fluoro-3-methyl-4-(trifluoromethyl)aniline] | 4.4 | 2.53 | 2060 |
| Cc1c(F)c(N)cc(-c2nc3c4c(nc(OCC5(CN6CCOCC6)CC5)nc4c2F)N2C[C@H]4CC[C@H](N4)[C@H]2[C@H](C)O3)c1CC(F)F [Compound 156, 4-(2,2-Difluoroethyl)-2-fluoro-5-((5S,5aS,6S,9R)-1-fluoro-5-methyl-12-((1-(morpholinomethyl)cyclopropyl)methoxy)-5a,6,7,8,9,10-hexahydro-5H-4-oxa-3,10a,11,13,14-pentaaza-6,9-methanonaphtho[1,8-ab]heptalen-2-yl)-3-methylaniline] | 9.4 | 2.94 | 776 |
| Cc1c(F)c(N)cc(-c2nc3c4c(nc(OC[C@H]5[C@@H](O)CCN5C)nc4c2F)N2C[C@H]4CC[C@H](N4)[C@H]2[C@H](C)O3)c1C(F)(F)F [Compound 162, (2S,3S)-2-((((5S,5aS,6S,9R)-2-(5-Amino-4-fluoro-3-methyl-2-(trifluoromethyl)phenyl)-1-fluoro-5-methyl-5a,6,7,8,9,10-hexahydro-5H-4-oxa-3,10a,11,13,14-pentaaza-6,9-methanonaphtho[1,8-ab]heptalen-12-yl)oxy)methyl)-1-methylpyrrolidin-3-ol] | 200 | 48.7 | 9450 |
| Cc1c(F)c(N)cc(-c2nc3c4c(nc(OCC5(CN6CCO[C@H](C)C6)CC5)nc4c2F)N2C[C@H]4CC[C@H](N4)[C@H]2[C@H](C)O3)c1C(F)(F)F [Compound 168, 2-Fluoro-5-((5S,5aS,6S,9R)-1-fluoro-5-methyl-12-((1-(((R)-2-methylmorpholino)methyl)cyclopropyl)methoxy)-5a,6,7,8,9,10-hexahydro-5H-4-oxa-3,10a,11,13,14-pentaaza-6,9-methanonaphtho[1,8-ab]heptalen-2-yl)-3-methyl-4-(trifluoromethyl)aniline] | 0.7 | 0.472 | 656 |
| Cc1c(F)c(N)cc(-c2nc3c4c(nc(OCC5(CN6C[C@H]7C[C@@H]6CO7)CC5)nc4c2F)N2C[C@H]4CC[C@H](N4)[C@H]2[C@H](C)O3)c1C(F)(F)F [Compound 170, 5-((5S,5aS,6S,9R)-12-((1-(((1R,4R)-2-Oxa-5-azabicyclo[2.2.1]heptan-5-yl)methyl)cyclopropyl)methoxy)-1-fluoro-5-methyl-5a,6,7,8,9,10-hexahydro-5H-4-oxa-3,10a,11,13,14-pentaaza-6,9-methanonaphtho[1,8-ab]heptalene-2-yl)-2-fluoro-3-methyl-4-(trifluoromethyl)aniline] | 0.8 | 0.92 | 506 |
| Cc1c(F)c(N)cc(-c2nc3c4c(nc(OCC5(CN6CC7(COC7)C6)CC5)nc4c2F)N2C[C@H]4CC[C@H](N4)[C@H]2[C@H](C)O3)c1C(F)(F)F [Compound 174, 5-((5S,5aS,6S,9R)-12-((1-((2-Oxa-6-azaspiro[3.3]heptan-6-yl)methyl)cyclopropyl)methoxy)-1-fluoro-5-methyl-5a,6,7,8,9,10-hexahydro-5H-4-oxa-3,10a,11,13,14-pentaaza[6,9]methanonaphtho[1,8-ab]heptalene-2-yl)-2-fluoro-3-methyl-4-(trifluoromethyl)aniline] | 1.3 | 3.86 | 227 |
| Cc1cc2[nH]ncc2c(-c2nc3c4c(nc(OC[C@@]56CCCN5C[C@H](F)C6)nc4c2F)N2C[C@H]4CC[C@H](N4)[C@H]2[C@H](C)O3)c1Cl [Compound 176, (5S,5aS,6S,9R)-2-(5-Chloro-6-methyl-1H-indazol-4-yl)-1-fluoro-12-(((2R,7aS)-2-fluorotetrahydro-1H-pyrrolizin-7a(5H)-yl)methoxy)-5-methyl-5a,6,7,8,9,10-hexahydro-5H-4-oxa-3,10a,11,13,14-pentaaza-6,9-methanonaphtho[1,8-ab]heptalene] | 200 | 168 | 15200 |
| Cc1cc(N)c(F)c(-c2nc3c4c(nc(OC[C@@]56CCCN5C[C@H](F)C6)nc4c2F)N2C[C@H]4CC[C@H](N4)[C@H]2[C@H](C)O3)c1CC(F)(F)F [Compound 182, 2-Fluoro-3-((5S,5aS,6S,9R)-1-fluoro-12-(((2R,7aS)-2-fluorotetrahydro-1H-pyrrolizin-7°(5H)-yl)methoxy)-5-methyl-5°,6,7,8,9,10-hexahydro-5H-4-oxa-3,10°,11,13,14-pentaaza-6,9-methanonaphtho[1,8-ab]heptalen-2-yl)-5-methyl-4-(2,2,2-trifluoroethyl)aniline] | 8.3 | 4.12 | 1910 |
| C[C@@H]1Oc2nc(-c3cc(N)c(F)c(F)c3CC(F)(F)F)c(F)c3nc(OC[C@@]45CCCN4C[C@H](F)C5)nc(c23)N2C[C@H]3CC[C@H](N3)[C@@H]12 [Compound 183, 2,3-Difluoro-5-((5S,5aS,6S,9R)-1-fluoro-12-(((2R,7aS)-2-fluorotetrahydro-1H-pyrrolizin-7a(5H)-yl)methoxy)-5-methyl-5a,6,7,8,9,10-hexahydro-5H-4-oxa-3,10a,11,13,14-pentaaza-6,9-methanonaphtho[1,8-ab]heptalene-2-yl)-4-(2,2,2-trifluoroethyl)aniline] | 4.2 | 2.32 | 852 |
